US6444862B1, “Synthesis and isolation of metal alkoxides” (Mine Safety Appliances Company, priority 2000, dated 2002)

Assay: Solubility of metal alkoxide in solvent
Type: physicochemical
Details: solution in heptane
Source text: To provide a safer material, metal alkoxides are often dissolved in a solvent. In general, liquids are, for example, easier to transfer from drums or cylinders into reactors (reducing the exposure of human handlers to dangerous materials), more easily kept under an inert atmosphere, and provide more options for modes of addition to the substrate. […] The low solubilities of many alkoxides have been attributed to the ionic character and the extent of oligomerization or polymerization in solution. Another factor affecting solubility in an alcohol solvent is the propensity of alkoxides to form insoluble alcoholate complexes with the alcohol. Metal alkoxides are somewhat more soluble in polar ethereal solvents such as tetrahydrofuran and the polyethers (glymes). However, even in ethers, the solubility is generally less than 50%, especially at or below room temperature (that is, at or below 25° C.). Moreover, the range of polar solvents is somewhat limited as a result of the reactivity of the alkoxide. Furthermore, in some cases the solvent of choice for the desired reaction involving a metal alkoxide is not compatible with the alkoxide or the metal alkoxide is insoluble therein.
In one set of studies, potassium 3,7-dimethyl-3-octanoxide (KDMO), was prepared by the reaction of potassium metal with 3,7-dimethyl-3-octanol in heptane in a pressure reaction vessel. […]

**Q.** For `CCC(C)([O-])CCCC(C)C.[K+]` (stereo not shown) [Example 1, Potassium 3,7-Dimethyl-3-octanoxide], which “concentration of alkoxide solution prepared” value is on record?
**A.** 70-75 wt %
